From patent US4297369A, “Certain muscle relaxant 3-methyl-2-benzofuran acetamides” (Kyowa Hakko Kogyo Co., Ltd., priority 1979, dated 1981)
Structures can show the parent of a compound that is named as a salt.

Tests used:
[1] = test system: tonic extensor seizures in mice (strychnine); assay: Strychnine convulsion test; type: in vivo, male dd mice; settings: 1 hr before strychnine 2 mg/kg s.c.
Method: (§1) Anticonvulsant activity was determined according to the following three methods.
Groups of 10 male dd mice weighing 19-21 g were used. The drugs were orally administered and one hr. later, strychnine was injected subcutaneously at 2 mg/kg. Drug activity is expressed as the percent blocking tonic extensor seizures.

[2] = Acute toxicity, oral, rats; settings: rat, in vivo, p.o., 7 days mortality
Method: (§2) Male dd mice weighing 19-21 g and male Wistar rats weighing 170-190 g were used in groups of 3-6 animals. The drugs were suspended in a 0.3% carboxymethyl cellulose solution and administered orally. […] As the reference compound, benzydamine.HCl was dissolved in water and administered orally. (In Example, 6, 7 and 8, the drugs and benzydamine. HCl were also administered in the same manner.

[3] = test system: carrageenin hind paw edema in rats; assay: Anti-inflammatory activity: carrageenin paw edema; type: in vivo, male Wistar rats; settings: edema 3 hr after carrageenin, vs control
Method: Groups of 5 male Wistar rats weighing 130-150 g were used. One hr. after drug administration, 0.1 ml of a 1% aqueous suspension of carrageenin was injected into the plantar surface of the right hind paw. The volume of the injected paw was measured before and 3 hr. after carrageenin injection by mercury displacement. Drug activity is expressed as the percent difference between the test and control groups' edema.

mice [4] = assay: Muscle relaxant activity: traction test; type: in vivo, male dd mice
Method: (§3) Groups of 5 male dd mice weighing 19-21 g were used. The mice which remained for a period of 3 min. on a 3 cm diameter rod rotating at 5 r.p.m. were selected and tested to determine the muscle relaxant activity at 1, 2 and 4 hr. after drug administration. The methods employed are as follows.
Forefeet of each mouse were placed on a wire to examine whether it fell off or not.
(§4) In each test, the compound was considered to have the muscle relaxant activity when the mice fell off.

[5] = Acute toxicity, oral, mice; settings: mouse, in vivo, p.o., 7 days mortality
Method: as §2

[6] = test system: acetic acid writhing in mice; assay: Analgesic activity: acetic acid writhing; type: in vivo, male dd mice; settings: number of writhes vs control
Method: Groups of 10 male dd mice weighing 19-21 g were used. One hr. after drug administration, 0.2 ml of a 0.7% aqueous solution of acetic acid was injected intraperitoneally. Ten min. after acetic acid injection, the number of writhes was counted for each mouse during the following 10 min. Drug activity is expressed as the percent inhibition of the number of writhes in the control group.

mice [7] = assay: Muscle relaxant activity: slant test; type: in vivo, male dd mice
Method: as §3
Each mouse was mounted on a 45°-inclined wire netting to examine whether it fell off or not.
as §4

[8] = test system: clonic seizures in mice (pentetrazol); assay: Pentetrazol convulsion test; type: in vivo, male dd mice; settings: 1 hr before pentetrazol 120 mg/kg s.c.
Method: as §1
Groups of 10 male dd mice weighing 19-21 g were used. The drugs were orally administered and one hr. later, pentetrazol was injected subcutaneously at 120 mg/kg. Drug activity is expressed as the percent blocking clonic seizures.

[9] = test system: tonic extensor seizures in mice (electroshock); assay: Maximal electroshock convulsion test; type: in vivo, male dd mice; settings: 100 mg/Kg p.o., 1 hr before shock; blocking tonic extensor seizures
Method: as §1
Groups of 10 male dd mice weighing 22-24 g were used. The drugs were orally administered and one hr. later, the mice were subjected to an electric current (2000 V, 50 mA) for 0.2 sec. through corneal electrodes. Drug activity is expressed as the percent blocking tonic extensor seizures.

mice [10] = assay: Muscle relaxant activity: rotating rod test; type: in vivo, male dd mice
Method: as §3
Each mouse was mounted on a rotating rod to examine whether it fell off or not within 2 min.
as §4

[11] = 300 mg/kg p.o., 1 hr after administration
[12] = 300 mg/kg p.o., 2 hr after administration
[13] = 300 mg/kg p.o., 4 hr after administration
[14] = 200 mg/kg p.o., 1 hr after administration
[15] = 200 mg/kg p.o., 2 hr after administration
[16] = 200 mg/kg p.o., 4 hr after administration

Cc1ccc2oc(CC(=O)N(C)C)c(C)c2c1 [B, 2-dimethylcarbamoylmethyl-3,5-dimethylbenzo[b]furan]
% Inhibition, Strychnine Convulsion Test ([1]; 300 mg/Kg p.o.): 88% | LD50 at 168 h [2]: > 3000 mg/kg | Anti-inflammatory Activity, % Inhibition ([3]; 300 mg/Kg p.o.): 10.2% | No. of falling mice/five tested mice, traction test (mice [4]; [11]): 5 mice/five tested mice | No. of falling mice/five tested mice, traction test (mice [4]; [12]): 5 mice/five tested mice | No. of falling mice/five tested mice, traction test (mice [4]; [13]): 0 mice/five tested mice | LD50 at 168 h [5]: > 3000 mg/kg | Analgesic Activity, % Inhibition ([6]; 150 mg/Kg p.o.): 24.0% | No. of falling mice/five tested mice, slant test (mice [7]; [11]): 5 mice/five tested mice | No. of falling mice/five tested mice, slant test (mice [7]; [12]): 4 mice/five tested mice | No. of falling mice/five tested mice, slant test (mice [7]; [13]): 0 mice/five tested mice | % Inhibition, Pentetrazole Convulsion Test ([8]; 150 mg/Kg p.o.): 90% | % Inhibition, Maximal Electroshock Test [9]: 80% | No. of falling mice/five tested mice, rotating rod test (mice [10]; [11]): 5 mice/five tested mice | No. of falling mice/five tested mice, rotating rod test (mice [10]; [12]): 5 mice/five tested mice | No. of falling mice/five tested mice, rotating rod test (mice [10]; [13]): 0 mice/five tested mice

COc1ccc2oc(CC(=O)N(C)C)c(C)c2c1 [A, 2-dimethylcarbamoylmethyl-3-methyl-5 methoxybenzo[b]furan]
% Inhibition, Strychnine Convulsion Test ([1]; 300 mg/Kg p.o.): 60% | Anti-inflammatory Activity, % Inhibition ([3]; 300 mg/Kg p.o.): 23.3% | No. of falling mice/five tested mice, traction test (mice [4]; [11]): 2 mice/five tested mice | No. of falling mice/five tested mice, traction test (mice [4]; [12]): 2 mice/five tested mice | No. of falling mice/five tested mice, traction test (mice [4]; [13]): 0 mice/five tested mice | LD50 at 168 h [5]: > 1000 mg/kg | Analgesic Activity, % Inhibition ([6]; 150 mg/Kg p.o.): 83.6% | No. of falling mice/five tested mice, slant test (mice [7]; [11]): 3 mice/five tested mice | No. of falling mice/five tested mice, slant test (mice [7]; [12]): 1.5 mice/five tested mice | No. of falling mice/five tested mice, slant test (mice [7]; [13]): 0 mice/five tested mice | % Inhibition, Pentetrazole Convulsion Test ([8]; 150 mg/Kg p.o.): 40% | % Inhibition, Maximal Electroshock Test [9]: 30% | No. of falling mice/five tested mice, rotating rod test (mice [10]; [11]): 5 mice/five tested mice | No. of falling mice/five tested mice, rotating rod test (mice [10]; [12]): 3 mice/five tested mice | No. of falling mice/five tested mice, rotating rod test (mice [10]; [13]): 1 mice/five tested mice

Cc1c(CC(=O)N(C)C)oc2ccc(-c3ccccc3)cc12 [C, 2-dimethylcarbamoylmethyl-3-methyl-5-phenylbenzo[b]furan]
% Inhibition, Strychnine Convulsion Test ([1]; 300 mg/Kg p.o.): 70% | Anti-inflammatory Activity, % Inhibition ([3]; 300 mg/Kg p.o.): 20.4% | No. of falling mice/five tested mice, traction test (mice [4]; [11]): 2 mice/five tested mice | No. of falling mice/five tested mice, traction test (mice [4]; [12]): 3 mice/five tested mice | No. of falling mice/five tested mice, traction test (mice [4]; [13]): 0 mice/five tested mice | LD50 at 168 h [5]: > 1000 mg/kg | Analgesic Activity, % Inhibition ([6]; 150 mg/Kg p.o.): 48.4% | No. of falling mice/five tested mice, slant test (mice [7]; [11]): 1.5 mice/five tested mice | No. of falling mice/five tested mice, slant test (mice [7]; [12]): 1.5 mice/five tested mice | No. of falling mice/five tested mice, slant test (mice [7]; [13]): 0 mice/five tested mice | % Inhibition, Pentetrazole Convulsion Test ([8]; 150 mg/Kg p.o.): 30% | % Inhibition, Maximal Electroshock Test [9]: 100% | No. of falling mice/five tested mice, rotating rod test (mice [10]; [11]): 3 mice/five tested mice | No. of falling mice/five tested mice, rotating rod test (mice [10]; [12]): 3 mice/five tested mice | No. of falling mice/five tested mice, rotating rod test (mice [10]; [13]): 0 mice/five tested mice

Cc1c(CC(=O)N(C)C)oc2ccc(F)cc12 [D, 2-dimethylcarbamoylmethyl-3-methyl-5-fluorobenzo[b]furan]
% Inhibition, Strychnine Convulsion Test ([1]; 300 mg/Kg p.o.): 57% | Anti-inflammatory Activity, % Inhibition ([3]; 300 mg/Kg p.o.): 31.2% | No. of falling mice/five tested mice, traction test (mice [4]; [11]): 5 mice/five tested mice | No. of falling mice/five tested mice, traction test (mice [4]; [12]): 5 mice/five tested mice | No. of falling mice/five tested mice, traction test (mice [4]; [13]): 1 mice/five tested mice | LD50 at 168 h [5]: > 1000 mg/kg | Analgesic Activity, % Inhibition ([6]; 150 mg/Kg p.o.): 32.9% | No. of falling mice/five tested mice, slant test (mice [7]; [11]): 4.5 mice/five tested mice | No. of falling mice/five tested mice, slant test (mice [7]; [12]): 4.5 mice/five tested mice | No. of falling mice/five tested mice, slant test (mice [7]; [13]): 1 mice/five tested mice | % Inhibition, Pentetrazole Convulsion Test ([8]; 150 mg/Kg p.o.): 80% | % Inhibition, Maximal Electroshock Test [9]: 85% | No. of falling mice/five tested mice, rotating rod test (mice [10]; [11]): 5 mice/five tested mice | No. of falling mice/five tested mice, rotating rod test (mice [10]; [12]): 5 mice/five tested mice | No. of falling mice/five tested mice, rotating rod test (mice [10]; [13]): 2 mice/five tested mice

CN(C)CCCOc1nn(Cc2ccccc2)c2ccccc12 [Benzydamine . HCl, reference compound]
% Inhibition, Strychnine Convulsion Test ([1]; 100 mg/Kg p.o.): 70% | LD50 at 168 h [2]: > 1500 mg/kg | Anti-inflammatory Activity, % Inhibition ([3]; 400 mg/Kg p.o.): 20.9% | No. of falling mice/five tested mice, traction test (mice [4]; [14]): 0 mice/five tested mice | No. of falling mice/five tested mice, traction test (mice [4]; [15]): 0 mice/five tested mice | No. of falling mice/five tested mice, traction test (mice [4]; [16]): 0 mice/five tested mice | LD50 at 168 h [5]: 500 to 1000 mg/kg | Analgesic Activity, % Inhibition ([6]; 400 mg/Kg p.o.): 95.2% | No. of falling mice/five tested mice, slant test (mice [7]; [14]): 2 mice/five tested mice | No. of falling mice/five tested mice, slant test (mice [7]; [15]): 1 mice/five tested mice | No. of falling mice/five tested mice, slant test (mice [7]; [16]): 0 mice/five tested mice | % Inhibition, Pentetrazole Convulsion Test ([8]; 200 mg/Kg p.o.): 0% | % Inhibition, Maximal Electroshock Test [9]: 100% | No. of falling mice/five tested mice, rotating rod test (mice [10]; [14]): 4 mice/five tested mice | No. of falling mice/five tested mice, rotating rod test (mice [10]; [15]): 2 mice/five tested mice | No. of falling mice/five tested mice, rotating rod test (mice [10]; [16]): 0 mice/five tested mice
